Assay results taken from patent US12011444B2, “N-substituted indole derivatives as PGE2 receptor modulators” (Idorsia Pharmaceuticals Ltd, priority 2015, dated 2024).

Experiments:
EP2 = EP2 (Homo sapiens (Human), UniProt P43116);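 also: antagonism of PGE2-stimulated cAMP accumulation in SF295 human glioblastoma cells with endogenous EP2, cAMP read by HTRF, expressed relative to DMSO control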
EP4 = EP4 (Homo sapiens (Human), UniProt P35408); assay: hEP4 cAMP assay (BT549 breast cancer cells, HTRF cAMP); type: cell-based; conditions: antagonistic activity; mean values where measured multiple times
EP4, sequence (P35408 whole entry): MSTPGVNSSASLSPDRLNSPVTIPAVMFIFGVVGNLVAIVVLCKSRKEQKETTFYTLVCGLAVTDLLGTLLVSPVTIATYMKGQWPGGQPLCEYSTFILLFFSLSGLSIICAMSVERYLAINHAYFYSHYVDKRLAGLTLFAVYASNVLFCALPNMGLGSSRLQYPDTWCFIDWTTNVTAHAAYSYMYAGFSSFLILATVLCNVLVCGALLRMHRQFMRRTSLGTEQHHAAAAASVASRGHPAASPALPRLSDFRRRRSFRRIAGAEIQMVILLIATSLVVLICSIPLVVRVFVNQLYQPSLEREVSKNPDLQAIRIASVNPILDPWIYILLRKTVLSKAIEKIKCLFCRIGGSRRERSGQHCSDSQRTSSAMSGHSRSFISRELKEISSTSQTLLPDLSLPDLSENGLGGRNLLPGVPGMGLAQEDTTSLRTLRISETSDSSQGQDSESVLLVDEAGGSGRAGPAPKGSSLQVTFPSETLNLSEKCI
Experimental: Plate is pre-incubated 45 minutes at room temperature. Subsequently, 2.5 microliters of PGE2 (final conc. 6 nM) are transferred into the assay plate. Plate is incubated 30 minutes at room temperature.

EP2, sequence (P43116 whole entry): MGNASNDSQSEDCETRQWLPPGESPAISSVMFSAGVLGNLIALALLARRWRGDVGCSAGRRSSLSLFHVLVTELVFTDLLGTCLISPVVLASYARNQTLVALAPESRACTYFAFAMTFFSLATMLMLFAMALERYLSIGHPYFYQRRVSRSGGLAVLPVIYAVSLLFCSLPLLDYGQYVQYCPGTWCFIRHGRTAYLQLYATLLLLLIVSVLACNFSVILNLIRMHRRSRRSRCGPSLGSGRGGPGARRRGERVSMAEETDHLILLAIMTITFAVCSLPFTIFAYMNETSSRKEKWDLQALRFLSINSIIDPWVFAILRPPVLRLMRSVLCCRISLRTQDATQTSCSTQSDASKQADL

SMILES	IC50 (EP2)	IC50 (EP4)
CCOc1cc(-c2cc(NCCn3c(C)cc4c(Br)cccc43)ncn2)sc1C(=O)O [Example 781, 5-{6-[2-(4-Bromo-2-methyl-indol-1-yl)-ethylamino]-pyrimidin-4-yl}-3-ethoxy-thiophene-2-carboxylic acid]	1 nM	18 nM
Cc1cc(F)cc2c1cc(C)n2CCNc1cc(-c2ccc3[nH]ccc3c2)ncn1 [compound 697, [2-(6-Fluoro-2,4-dimethyl-indol-1-yl)-ethyl]-[6-(1H-indol-5-yl)-pyrimidin-4-yl]-amine]	15 nM	77 nM
COc1ccc(F)c2c1cc(C)n2CCNc1cc(-c2ccc(-c3cc(C(=O)O)[nH]n3)cc2)ncn1 [compound 594]	190 nM	42 nM
Cc1ccc(F)c2c1cc(C)n2CCNc1cc(-c2ccc3c(c2)OCCO3)ncn1 [compound 740]	183 nM	655 nM
CCCc1cc(-c2cc(NCCn3c(C)cc4c(C)ccc(F)c43)ncn2)cc(F)c1C(=O)O [compound 416]	14 nM	99 nM
CCOc1cc(-c2cc(NCCn3c(C)cc4c(OC)cc(F)c(F)c43)ncn2)cc(F)c1-c1nnn[nH]1 [compound 656]	52 nM	89 nM
COc1cc(F)c(F)c2c1cc(C)n2CCNc1cc(-c2ccc(-c3noc(=O)[nH]3)cc2)ncn1 [compound 678, 3-(4-{6-[2-(6,7-Difluoro-4-methoxy-2-methyl-indol-1-yl)-ethylamino]-pyrimidin-4-yl}-phenyl)-4H-[1,2,4]oxadiazol-5-one]	33 nM	40 nM
Cc1cnoc1-c1ccc(-c2cc(NCCn3c(C)cc4c(C)cc(F)cc43)ncn2)cc1 [compound 734]	95 nM	465 nM
CCNc1cc(-c2cc(NCCn3c(C)cc4c(OC)ccc(F)c43)ncn2)cc(F)c1C(=O)O [compound 483]	4 nM	98 nM
Cc1cc2c(F)c(F)cc(Cl)c2n1CCNc1cc(-c2ccc(C(=O)O)c(SC(C)C)c2)ncn1 [compound 500]	17 nM	816 nM
Cc1cc(F)cc2c1cc(C)n2CCNc1cc(-c2ccc(-c3cnc(N)o3)cc2)ncn1 [compound 552]	26 nM	118 nM
CCCc1cc(-c2cc(NCCn3c(C)cc4cc(Cl)cc(F)c43)ncn2)cc(Cl)c1C(=O)O [compound 427]	85 nM	240 nM
CCOc1cc(-c2cc(NCCn3c(C)cc4c(OC)ccc(F)c43)ncn2)ccc1CNCCOC [compound 589]	228 nM	707 nM
COc1cc(F)cc2c1cc(C)n2CCNc1cc(-c2ccc3c(ccn3C)c2)ncn1 [compound 705, [2-(6-Fluoro-4-methoxy-2-methyl-indol-1-yl)-ethyl]-[6-(1-methyl-1H-indol-5-yl)-pyrimidin-4-yl]-amine]	21 nM	80 nM
CNc1nnc(-c2ccc(-c3cc(NCCn4c(C)cc5c(OC)ccc(F)c54)ncn3)cc2)s1 [compound 471, [2-(7-Fluoro-4-methoxy-2-methyl-indol-1-yl)-ethyl]-{6-[4-(5-methylamino-[1,3,4]thiadiazol-2-yl)-phenyl]-pyrimidin-4-yl}-amine]	2 nM	29 nM
Cc1cc(F)cc2c1cc(C)n2CCNc1cc(-c2ccc(C(=O)O)c(OCC(C)C)c2)ncn1 [compound 526]	10 nM	230 nM
COc1cccc2c1cc(C)n2CCNc1cc(-c2ccc(-c3nc(C(=O)O)cs3)cc2)ncn1 [compound 557]	5 nM	78 nM
Cc1cc2c(Cl)cc(F)cc2n1CCNc1cc(-c2ccc(C(=O)O)c(CC(C)C)c2)ncn1 [compound 419]	90 nM	403 nM
CCCc1cc(-c2cc(NCCn3c(C)cc4c(OC)c(F)ccc43)ncn2)cc(F)c1C(=O)O [compound 520]	82 nM	482 nM
CCNc1cc(-c2cc(NCCn3c(C)cc4c(OC)ccc(F)c43)ncn2)ccc1-c1nnn[nH]1 [compound 665, {6-[3-Ethylamino-4-(1H-tetrazol-5-yl)-phenyl]-pyrimidin-4-yl}-[2-(7-fluoro-4-methoxy-2-methyl-indol-1-yl)-ethyl]-amine]	2 nM	13 nM
CCOc1cc(-c2cc(NCCn3c(C)cc4c(C)cc(F)cc43)ncn2)cc(Cl)c1C(=O)O [compound 432]	21 nM	117 nM
COc1ccc(F)c2c1cc(C)n2CCNc1cc(-c2ccc(-c3oncc3C)cc2)ncn1 [compound 737, [2-(7-Fluoro-4-methoxy-2-methyl-indol-1-yl)-ethyl]-{6-[4-(4-methyl-isoxazol-5-yl)-phenyl]-pyrimidin-4-yl}-amine]	25 nM	156 nM
Cc1cc2c(F)c(F)ccc2n1CCNc1cc(-c2ccc(C(=O)O)c(CC(C)C)c2)ncn1 [compound 411]	20 nM	443 nM
Cc1ccc(F)c2c1cc(C)n2CCNc1cc(-c2ccc(-c3n[nH]cc3C(=O)O)cc2)ncn1 [compound 456]	233 nM	944 nM

SMILES	IC50 (EP2)	IC50 (EP4)
Cc1cc(F)cc2c1cc(C)n2CCNc1cc(-c2ccc(-c3ncno3)cc2)ncn1 [compound 685, [2-(6-Fluoro-2,4-dimethyl-indol-1-yl)-ethyl]-[6-(4-[1,2,4]oxadiazol-5-yl-phenyl)-pyrimidin-4-yl]-amine]	6 nM	109 nM
COc1ccc(F)c2c1cc(C)n2CCNc1cc(-c2ccc(-n3nc(C)cc3C)cc2)ncn1 [compound 459]	62 nM	739 nM
COc1ccc(F)c2c1cc(C)n2CCNc1cc(-c2ccc3[nH]ccc3c2)ncn1 [compound 700, [2-(7-Fluoro-4-methoxy-2-methyl-indol-1-yl)-ethyl]-[6-(1H-indol-5-yl)-pyrimidin-4-yl]-amine]	7 nM	44 nM
COc1cc(F)cc2c1cc(C#N)n2CCNc1cc(-c2ccc(C(=O)O)c(CC(C)C)c2)ncn1 [compound 603]	41 nM	15 nM
COc1c(F)ccc2c1cc(C)n2CCNc1cc(-c2ccc(C(=O)O)c(CC(C)C)c2)ncn1 [compound 538]	64 nM	261 nM
CCNc1cc(-c2cc(NCCn3c(C)cc4c(OC)ccc(Cl)c43)ncn2)ccc1-c1nnn[nH]1 [compound 666, [2-(7-Chloro-4-methoxy-2-methyl-indol-1-yl)-ethyl]-{6-[3-ethylamino-4-(1H-tetrazol-5-yl)-phenyl]-pyrimidin-4-yl}-amine]	7 nM	40 nM
Cc1ccc(F)c2c1cc(C)n2CCNc1cc(-c2ccc(C(=O)O)c(OC(F)F)c2)ncn1 [compound 601]	12 nM	122 nM
CCCCOc1cc(-c2cc(NCCn3c(C)cc4c(OC)ccc(Cl)c43)ncn2)ccc1C(=O)O [compound 613]	4 nM	221 nM
CCCOc1cc(-c2cc(NCCn3c(C)cc4c(OC)ccc(F)c43)ncn2)ccc1C(=O)O [compound 496]	8 nM	99 nM
COc1cc(F)c(F)c2c1cc(C)n2CCNc1cc(-c2ccc(-c3oc(CCC(=O)O)nc3C)cc2)ncn1 [compound 655]	152 nM	191 nM
CCOc1cc(-c2cc(NCCn3c(C)cc4c(OC)cc(F)cc43)nc(C)n2)ccc1C(=O)O [compound 492]	63 nM	626 nM
Cc1ccc(F)c2c1cc(C)n2CCNc1cc(-c2ccc(C(=O)O)c(OCC(C)C)c2)ncn1 [compound 534]	8 nM	91 nM
CCCOc1cc(-c2cc(NCCn3c(C)cc4c(C)cc(F)cc43)ncn2)cc(F)c1C(=O)O [compound 524]	36 nM	377 nM
CCCOc1cc(-c2cc(NCCn3c(C)cc4c(OC)cc(F)cc43)ncn2)cc(Cl)c1C(=O)O [compound 607]	25 nM	111 nM
Cc1ccc(F)c2c1cc(C)n2CCNc1cc(-c2ccc3[nH]ccc3c2)ncn1 [compound 698, [2-(7-Fluoro-2,4-dimethyl-indol-1-yl)-ethyl]-[6-(1H-indol-5-yl)-pyrimidin-4-yl]-amine]	21 nM	79 nM
Cc1cc(F)cc2c1cc(C#N)n2CCNc1cc(-c2ccc(C(=O)O)c(CC(C)C)c2)ncn1 [compound 481]	61 nM	112 nM
CCOc1cc(-c2cc(NCCn3c(C)cc4c(C(F)(F)F)ccc(F)c43)ncn2)ccc1C(=O)O [compound 543]	990 nM	250 nM
COc1cc(F)cc2c1cc(C)n2CCNc1cc(-c2ccc3[nH]ccc3c2)ncn1 [compound 699, [2-(6-Fluoro-4-methoxy-2-methyl-indol-1-yl)-ethyl]-[6-(1H-indol-5-yl)-pyrimidin-4-yl]-amine]	9 nM	63 nM
COc1cc(F)c(F)c2c1cc(C)n2CCNc1cc(-c2ccc(C(=O)O)c(NCC(F)(F)F)c2)ncn1 [compound 644, 4-{6-[2-(6,7-Difluoro-4-methoxy-2-methyl-indol-1-yl)-ethylamino]-pyrimidin-4-yl}-2-(2,2,2-trifluoro-ethylamino)-benzoic acid]	6 nM	54 nM
Cc1cc(-c2ccc(-c3cc(NCCn4c(C)cc5c(C)ccc(F)c54)ncn3)cc2)on1 [compound 714]	72 nM	958 nM
CCCc1cc(-c2cc(NCCn3c(C)cc4c(OC)cc(Cl)cc43)ncn2)cc(F)c1C(=O)O [compound 511]	18 nM	158 nM
COc1c(F)cc(Cl)c2c1cc(C)n2CCNc1cc(-c2ccc3[nH][nH]c(=O)c3c2)ncn1 [Example 783, 5-{6-[2-(7-Chloro-5-fluoro-4-methoxy-2-methyl-indol-1-yl)-ethylamino]-pyrimidin-4-yl}-1,2-dihydro-indazol-3-one]	271 nM	912 nM
COc1cc(F)c(F)c2c1cc(C)n2CCNc1cc(-c2ccc3[nH]ccc3c2)ncn1 [compound 701, [2-(6,7-Difluoro-4-methoxy-2-methyl-indol-1-yl)-ethyl]-[6-(1H-indol-5-yl)-pyrimidin-4-yl]-amine]	15 nM	24 nM
CCCCOc1cc(-c2cc(NCCn3c(C)cc4c(C)cc(F)cc43)ncn2)ccc1C(=O)O [compound 527]	8 nM	134 nM
